Measurements published in patent US20040067923A1, “Use of biogenic estriol sulfamate prodrugs for treatment of autoimmune diseases” (priority 2002, published 2004).

What was measured:
[1] = Heithecker et al., 1991; cited from earlier work
[2] = 12 mg/day, Lindsay et al., 1979; cited from earlier work
[3] = test system: ovariectomised Wistar rats
Experimental: Adult Wistar rats (6 months old) were ovariectomised and orally treated with estriol-3-O-sulfamate, reference compound and vehicle, respectively. Effects of treatment on uterine weight after 28 days of treatment were determined.

[4] = Head et al., 1998; cited from earlier work
[5] = test system: ovariectomised Wistar rats; conditions: 28 days
Experimental: Adult Wistar rats (6 months old) were ovariectomised and orally treated with estriol-3-O-sulfamate, reference compound and vehicle, respectively. Effects on bone mineral density after 28 days of treatment were determined.

[6] = ovariectomised Wistar rats, 28 days

C[C@]12CC[C@@H]3c4ccc(O)cc4CC[C@H]3[C@@H]1C[C@@H](O)[C@@H]2O [estriol]
half-life [1]: 1.5 to 5.3 h | osteoprotective effects after oral administration [2]: not able to show the osteoprotective effects | oral dose to increase the uterine weight to basal level [3, 6]: 300 μg/animal/day | oral amount needed to achieve comparable serum levels of estriol as after intravaginal application [4]: ten times more | bone sparing effect at doses used for oral application of estriol-3-sulfamate [5]: no bone sparing effect

C[C@]12CC[C@@H]3c4ccc(OS(N)(=O)=O)cc4CC[C@H]3[C@@H]1C[C@@H](O)[C@@H]2O [estriol-3-sulfamate]
systemic estrogen activity after oral application compared with estriol ([3]; conclusion based on Examples 1, 2 and 3): much higher systemic estrogen activity | oral dose to increase the uterine weight to basal level [3, 6]: 100 μg/animal/day | potency relative to estriol administered orally, uterine weight test ([3]; ovariectomised Wistar rats, oral): about 3 fold | uterine weight dose relative to dose showing osteoprotective effects (tissue selectivity) ([3]; ovariectomised Wistar rats, oral, 28 days): ten times more | oral dose at which the loss in bone mineral density could be nearly restored [5]: 10 μg/animal/day
